Results on 13 compounds are retold here after patent US5624917A, “Method of inhibiting squalene synthetase” (Takeda Chemical Industries, Ltd., priority 1991, dated 1997).

The structures appear in SMILES notation.

One test deals with cholesterol biosynthesis. Nature of the test: Cholesterol biosynthesis inhibitory activity: cholesterol synthesis from [2-14C] acetic acid in rat liver slices. As to conditions: for effect on cholesterol synthesis from [2-14C] acetic acid (in words): 20 μM; for activity at 20 µM: 37° C., 2 hours, No addition = 100 ± 0. The class given is cell-based. The protocol: (§1) Squalene synthetase inhibitory activity and cholesterol biosynthesis inhibitory activity of the compounds used in the present invention were determined by the following method.
Determination of cholesterol biosynthesis Inhibitory activity
The liver was excised from Sprague-Dawley rat (6 weeks old, male) under full feeding and sliced into 500 μm in thickness. The slices of liver (150-200 mg) and KHB buffer solution (1 ml) containing 0.5 μCi [2-^14 C] acetic acid and various concentrations of test compounds were incubated at 37° C. for 2 hours. Cholesterol was extracted from the reaction mixture. The amount of cholesterol synthesized from the labeled acetic acid was measured, and the inhibitory ratio was calculated in comparison with the synthesized amount in the case of no addition of the test compounds.
The effect of Compound No. 22 (Example 39 described in Japanese Patent Application No. 3-151484) (added in 20 μM), 67, 74 and 75 on cholesterol synthesis from [2-^14 C] acetic acid in assay using liver slices of rats was observed.

For test [1], the target named is T1, squalene synthetase (Homo sapiens, UniProt P37268).
T1 construct: From the resulting sonicate, microsome fraction was obtained according to the same manner as that described in Experiment 1; endogenous in cells; host or cells: HepG2 human hepatoma cells (microsome fraction)
T1 sequence (P37268 1-417): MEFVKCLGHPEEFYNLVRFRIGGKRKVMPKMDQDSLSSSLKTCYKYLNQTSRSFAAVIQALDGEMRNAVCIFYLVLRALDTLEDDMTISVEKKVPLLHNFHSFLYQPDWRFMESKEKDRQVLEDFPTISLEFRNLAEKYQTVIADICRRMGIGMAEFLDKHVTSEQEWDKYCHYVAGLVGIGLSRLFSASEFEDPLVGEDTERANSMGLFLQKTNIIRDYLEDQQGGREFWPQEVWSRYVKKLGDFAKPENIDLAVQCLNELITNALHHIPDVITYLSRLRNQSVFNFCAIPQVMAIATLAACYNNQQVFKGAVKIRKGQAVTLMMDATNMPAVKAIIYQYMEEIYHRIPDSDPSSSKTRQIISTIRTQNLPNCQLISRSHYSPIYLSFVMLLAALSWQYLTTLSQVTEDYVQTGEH
Nature of the test: Squalene synthetase inhibitory activity, human enzyme (HepG2 microsome fraction). It is filed as biochemical. Conditions: human hepatoma HepG2 microsome fraction; 5 μM [1-3H]farnesylpyrophosphoric acid, pH 7.4, 37° C., 45 minutes; read-out: IC50, squalene synthetase inhibitory activity, Human enzyme. How it is done:
as §1
(§2) Determination of squalene synthetase inhibitory activity
(§3) The squalene synthetase inhibitory activity was determined as follows by using the enzyme solutions shown in Experiments 1 and 2 below.
(§4) Each enzyme solution (Protein: 0.8 μg) prepared in Experiments 1 and 2 was added to a solution (total amount: 50 μl) containing 5 μM[1-^3 H]farnesylpyrophosphoric acid (Specific activity 25 μCi/μmole), 1 mM NADPH, 5 mM MgCl2, 6 mM glutathione, 100 mM potassium phosphate buffer (pH 7.4) and a drug to be tested (which was added as a solution thereof in water or DMSO). The mixture was allowed to react at 37° C. for 45 minutes. A mixture (150 μl) of chloroform and methanol (1:2) was added to stop the reaction. Then, chloroform (50 μl) and 3N sodium hydroxide solution (50 μl) were added. The chloroform layer (under layer, 50 μl) containing the reaction products in which the major component was squalene was mixed with toluene liquid scintillator (3 ml). The radioactivity was measured with a liquid scintillation counter.
(§5) The squalene synthetase inhibitory activity is indicated by the concentration (IC50, molarity(M)) which inhibits the radioactivity incorporated into the chloroform layer by 50%.
Preparation of human enzyme
Cultivation was carried out on Dulbecco modified Eagle medium containing 10% bovine fetal serum in the presence of 5% CO2 at 37° C. The human hepatoma cells HepG2 (ca. 1×10^9 cells) were suspended in an ice-cooled buffer solution (10 ml) [100 mM potassium phosphate (pH 7.4), 30 mM nicotinamide, 2.5 mM MgCl2 ], and the cells were crushed by ultrasonication (30 seconds, twice). From the resulting sonicate, microsome fraction was obtained according to the same manner as that described in Experiment 1. This microsome fraction was suspended in an ice-cooled 100 mM potassium phosphate buffer solution (pH 7.4) so that the protein concentration became about 4 mg/ml, and this suspension was used as the enzyme liquid.

The target in test [2] is T2, squalene synthetase (Rattus norvegicus, UniProt Q02769).
T2 construct: from tissue; host or cells: liver of male SD rats (microsome fraction)
T2 sequence (Q02769 1-416): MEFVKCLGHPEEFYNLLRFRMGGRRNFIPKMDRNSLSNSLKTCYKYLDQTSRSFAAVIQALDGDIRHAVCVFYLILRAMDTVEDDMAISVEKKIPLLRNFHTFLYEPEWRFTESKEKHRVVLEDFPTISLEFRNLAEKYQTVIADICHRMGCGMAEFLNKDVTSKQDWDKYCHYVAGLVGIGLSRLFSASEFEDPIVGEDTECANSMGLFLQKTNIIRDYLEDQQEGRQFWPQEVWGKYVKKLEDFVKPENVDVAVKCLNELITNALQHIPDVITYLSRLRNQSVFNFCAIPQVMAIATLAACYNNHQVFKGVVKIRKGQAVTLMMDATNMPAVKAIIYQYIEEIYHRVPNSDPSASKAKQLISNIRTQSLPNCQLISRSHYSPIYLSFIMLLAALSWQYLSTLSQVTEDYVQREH
The test can be described thus: Squalene synthetase inhibitory activity, rat enzyme (rat liver microsome fraction). It is filed as biochemical. As to conditions: 5 μM [1-3H]farnesylpyrophosphoric acid, pH 7.4, 37° C., 45 minutes, read-out: IC50, squalene synthetase inhibitory activity, Rat enzyme. The protocol: as §1, §2, §3, §4, §5
Preparation of rat enzyme
SD-Male rats (6 weeks old) were bled to death followed by removal of liver. The liver (ca. 10 g) was washed with ice-cooled physiological saline, homogenized in an ice-cooled buffer solution (15 ml) [100 mM potassium phosphate (pH 7.4), 15 mM nicotinamide, 2 mM MgCl2 ] and centrifuged at 10,000×g for 20 minutes (4° C.). The resulting supernatant was further centrifuged at 105,000×g for 90 minutes (4° C.). Then, the deposit was suspended in an ice-cooled 100 mM potassium phosphate buffer solution (pH 7.4) and centrifuged at 105,000×g for 90 minutes (4° C.) again. The deposit (microsome fraction) thus obtained was suspended in an ice-cooled 100 mM potassium phosphate buffer solution (pH 7.4) so that the protein concentration became about 40 mg/ml (measured with BCA Protein Assay Kit (Pias)), and the suspension was used as the enzyme solution.

Broadly, the IC50 is the midpoint of a concentration-inhibition curve. Consider `COc1ccc(CSCCCCCCNC(P(=O)(O)O)P(=O)(O)O)cc1` [compound 67], for which, in the test on cholesterol biosynthesis, the “effect on cholesterol synthesis from [2-14C] acetic acid (in words)” value (from here on “effect on cholesterol synthesis”) was “significant inhibition of cholesterol biosynthesis” and the activity at 20 µM is 43.4 ± 5%. The IC50 on squalene synthetase [1] was 0.0093 µM. Moreover, the IC50 on squalene synthetase [2] was 0.0087 µM.

For the compound `O=P(O)(O)C(NCCCCCCSc1ccccc1)P(=O)(O)O` [compound 22], in the test with cholesterol biosynthesis, the “effect on cholesterol synthesis” value is on record as “significant inhibition of cholesterol biosynthesis” and the activity at 20 µM was 52.9 ± 10%.

Regarding `O=P(O)(O)C(NCCCCCCSc1nccs1)P(=O)(O)O` [compound 74], in the test on cholesterol biosynthesis, the “effect on cholesterol synthesis” value was “significant inhibition of cholesterol biosynthesis” and the activity at 20 µM was 35.8 ± 0.8%.

Turning to `Cc1nnc(SCCCCCCNC(P(=O)(O)O)P(=O)(O)O)s1` [compound 75], in the test with cholesterol biosynthesis, the “effect on cholesterol synthesis” value is given as “significant inhibition of cholesterol biosynthesis” and the activity at 20 µM was determined as 50 ± 7.9%.

As for `CC(C)=CCC/C(C)=C/CC/C(C)=C/CNC(P(=O)(O)O)P(=O)(O)O` [compound 93], the IC50 was 0.02 µM on squalene synthetase [1] and 0.019 µM at squalene synthetase [2].

For `O=P(O)(O)C(NCCCCOc1ccc2c(c1)OCO2)P(=O)(O)O` [compound 13], the figures for the IC50 at squalene synthetase [1] and at squalene synthetase [2] were 0.014 µM and 0.019 µM, respectively.

For the compound `O=P(O)(O)C(NCCCCSc1ccccc1)P(=O)(O)O` [compound 1], the IC50 stood at 0.0089 µM on squalene synthetase [1] and 0.018 µM at squalene synthetase [2].

With `CCOP(=O)(OCC)C(NCCCCCc1ccccc1)P(=O)(OCC)OCC` [compound 14], the results for the IC50 on squalene synthetase [1] and on squalene synthetase [2] were 0.45 µM and 0.56 µM, respectively.

As to `O=P(O)(O)C(NCCCCCCCCCCC[S+]([O-])c1ccccc1)P(=O)(O)O` (stereo not shown) [compound 72], the IC50 at squalene synthetase [1] was found to be 0.0046 µM; on squalene synthetase [2], 0.0045 µM.

Turning to `O=P(O)(O)C(NC1CCCCCC1)P(=O)(O)O` [compound 20], the IC50 on squalene synthetase [1] came out at 6.4 µM; at squalene synthetase [2] it was 0.94 µM.

As to `O=P(O)(O)C(NCCCCCCCCCCCSc1ccccc1)P(=O)(O)O` [compound 102, trisodium 11-(phenylthio)undecylaminomethylenebisphosphonate], the results for the IC50 at squalene synthetase [1] and at squalene synthetase [2] were 0.003 µM and 0.0031 µM, respectively.

Turning to `O=P(O)(O)C(NCCSCCc1ccccc1)P(=O)(O)O` [compound 16], the half-maximal inhibitory concentration (IC50) was 0.0097 µM on squalene synthetase [1] and 0.02 µM on squalene synthetase [2].

Consider `O=P(O)(O)C(NCCCCSc1ccncc1)P(=O)(O)O` [compound 3], for which the figures for the IC50 at squalene synthetase [1] and on squalene synthetase [2] were 0.3 µM and 0.21 µM, respectively.
